Activity calls are given as the source filed them. The rule behind the calls is not given here.
What was measured:
[1] = Binding constant of the ion pair ( lithium picrate salt) to the peptide-matrix was calculated from the spectrophotometric determination of the free Li+ picrate salt after equilibration with the immobilized peptide in trifluoroethanol; NA=No affinity
[2] = Binding constant of the ion pair ( potassium picrate salt) to the peptide-matrix was calculated from the spectrophotometric determination of the free K+ picrate salt after equilibration with the immobilized peptide in trifluoroethanol; NA=No affinity
[3] = Binding constant of the ion pair ( sodium picrate salt) to the peptide-matrix was calculated from the spectrophotometric determination of the free Na+ picrate salt after equilibration with the immobilized peptide in trifluoroethanol
[4] = Binding constant of the ion pair ( lithium picrate salt) to the peptide-matrix was calculated from the spectrophotometric determination of the free Na+ picrate salt after equilibration with the immobilized peptide in trifluoroethanol
[5] = Binding constant of the ion pair ( lithium picrate salt) to the peptide-matrix was calculated from the spectrophotometric determination of the free […] picrate salt after equilibration with the immobilized peptide in trifluoroethanol; NA=No affinity
[6] = Binding constant of the ion pair ( lithium picrate salt) to the peptide-matrix was calculated from the spectrophotometric determination of the free Li+ picrate salt after equilibration with the immobilized peptide in trifluoroethanol

Compound | Activity [1] | Activity [2] | KNa [3] [M⁻¹] | Log K [4] | Activity [5] | Log K [6]
CC(=O)N[C@@H]1CSSC[C@@H](NC(C)=O)C(=O)N2CCC[C@@H]2C(=O)N[C@H](C(C)C)C(=O)N[C@H](C(=O)O)CSSC[C@@H](C(N)=O)NC(=O)[C@@H](C(C)C)NC(=O)[C@H]2CCCN2C1=O | inactive | inactive | 5200 |  |  | 
CC(=O)N[C@@H]1CSSC[C@@H](NC(C)=O)C(=O)N2CCC[C@@H]2C(=O)N[C@H](C(C)C)C(=O)N[C@H](C(N)=O)CSSC[C@@H](C(N)=O)NC(=O)[C@@H](C(C)C)NC(=O)[C@H]2CCCN2C1=O |  |  |  | 2.11 | inactive | 2.6
